According to ChEMBL document CHEMBL4483862, “Open-source discovery of chemical leads for next-generation chemoprotective antimalarials” (2018):

Tested on: Plasmodium berghei
Assay: Luciferase/luciferin-expressing antifolate-resistant parasites were used to infect a culture of HepG2 cells that were pre-incubated with compounds. Infected hepatocytes emit light due to the luciferase reaction. Assay results are presented as the percent inhibition of light emission compared to control. […]
Type: functional
Conditions: sporozoite; for IC90: read-out: LUCIFERASE INFECTION ASSAY - IC90
[1] = read-out: LUCIFERASE INFECTION ASSAY - IC50

Compound | IC90 | IC50 [1] | also measured
O=C(/C=C/c1ccc(Cl)c([N+](=O)[O-])c1)c1ccc(NC2=NCCCS2)cc1 | 9.95 µM | – | IC50 (HEPG2TOX_HILL_SLOPE 9.82, HEPG2TOX_R_SQUARED 0.995, PBLUC_HILL_SLOPE 5.88, PBLUC_R_SQUARED 0.401, read-out: LUCIFERASE INFECTION ASSAY - IC50): 6.85 µM
COc1ccccc1-n1c(COc2ccccc2-c2ccccc2)nnc1SC(C(=O)NC(N)=O)C(C)C (stereo not drawn) | > 10 µM | – | IC50 (HEPG2TOX_HILL_SLOPE 0.0773, HEPG2TOX_R_SQUARED 0.0989, read-out: LUCIFERASE INFECTION ASSAY - IC50): > 10 µM
CCOC(=O)c1cc(C#N)c(Sc2n[nH]c(=O)n2C(C)C)nc1C(F)(F)F | > 8.22 µM | – | IC50 (HEPG2TOX_HILL_SLOPE 15.1, HEPG2TOX_R_SQUARED 0.842, PBLUC_HILL_SLOPE 4.42, PBLUC_R_SQUARED 0.232, read-out: LUCIFERASE INFECTION ASSAY - IC50): 5.41 µM
Cc1cccc2c(=O)n(CC(=O)NCCCCOc3ccc(F)cc3)cnc12 | > 10 µM | > 10 µM | –
CCN1CCC(N(C)c2ccc(S(=O)(=O)N3CCCCCC3)cc2[N+](=O)[O-])CC1 | > 10 µM | – | IC50 (PBLUC_HILL_SLOPE 3.35, PBLUC_R_SQUARED 0.446, read-out: LUCIFERASE INFECTION ASSAY - IC50): 6.31 µM
O=C1NC(c2ccc(N3CCCCC3)cc2)Nc2ccccc21 (stereo not drawn) | 0.743 µM | 0.0973 µM | –
O=C(Nc1ccc(SC(F)(F)F)cc1)Nc1ccc(SC(F)(F)F)cc1 | 0.867 µM | – | IC50 (HEPG2TOX_HILL_SLOPE 1.44, HEPG2TOX_R_SQUARED 0.886, PBLUC_HILL_SLOPE 1.62, PBLUC_R_SQUARED 0.668, read-out: LUCIFERASE INFECTION ASSAY - IC50): 0.223 µM
N#C/C(=C(/Oc1ccc(Cl)cc1Cl)C(F)(F)F)c1ccccc1 | > 9.21 µM | – | IC50 (HEPG2TOX_HILL_SLOPE 9.57, HEPG2TOX_R_SQUARED 0.894, PBLUC_HILL_SLOPE 12.7, PBLUC_R_SQUARED 0.611, read-out: LUCIFERASE INFECTION ASSAY - IC50): 8.77 µM
O=C(c1ccco1)N1CCC(Nc2nc(-c3cccs3)nc3sc4c(c23)CCCC4)CC1 | > 10 µM | > 10 µM | –
Cc1nn(CC(=O)NC(C)c2cc3ccccc3o2)c(C)c1S(=O)(=O)N1CCc2ccccc21 (stereo not drawn) | > 10 µM | > 10 µM | –
COc1ccc(NC(=O)c2cccc3c[nH]nc23)cc1Cc1ccccc1 | 9.56 µM | – | IC50 (PBLUC_HILL_SLOPE 1.42, PBLUC_R_SQUARED 0.679, read-out: LUCIFERASE INFECTION ASSAY - IC50): 2.02 µM
O=C1C(=O)N(CCN2CCOCC2)c2ccc(F)cc21 | > 11.9 µM | – | IC50 (PBLUC_HILL_SLOPE 4.75, PBLUC_R_SQUARED 0.191, read-out: LUCIFERASE INFECTION ASSAY - IC50): 10.9 µM
COC(=O)c1cc(CNCC(O)COc2ccc(C(C)(C)CC(C)(C)C)cc2)ccc1OC (stereo not drawn) | 4.63 µM | – | IC50 (PBLUC_HILL_SLOPE 7.71, PBLUC_R_SQUARED 0.722, read-out: LUCIFERASE INFECTION ASSAY - IC50): 3.48 µM
O=C(NC1CC1)c1ccc(CN(C2CC2)S(=O)(=O)c2ccccc2[N+](=O)[O-])cc1 | 3.74 µM | 3.41 µM | –
O=C(Nc1nc(CN2CCOCC2)cs1)c1ccc(-c2ccc(Cl)cc2)s1 | > 10 µM | – | IC50 (HEPG2TOX_HILL_SLOPE 0.481, HEPG2TOX_R_SQUARED 0.864, PBLUC_HILL_SLOPE 0.848, PBLUC_R_SQUARED 0.477, read-out: LUCIFERASE INFECTION ASSAY - IC50): 0.826 µM
CCCCCNS(=O)(=O)c1cccc2c(N)cccc12 | > 11.3 µM | 3.76 µM | –
O=C(Nc1cccc(/C=C/c2ccc3cccc(O)c3n2)c1)C(F)(F)F | > 10 µM | – | IC50 (PBLUC_HILL_SLOPE 13.5, PBLUC_R_SQUARED 0.34, read-out: LUCIFERASE INFECTION ASSAY - IC50): 8.84 µM
Cn1nc(SCC(=O)NN)c(=O)n(C)c1=O | 3.54 µM | – | IC50 (PBLUC_HILL_SLOPE 9.87, PBLUC_R_SQUARED 0.424, read-out: LUCIFERASE INFECTION ASSAY - IC50): 2.84 µM
COc1ccc(-c2cnc3cnc(-c4ccc(N)nc4)cn23)cc1 | 8 µM | – | IC50 (PBLUC_HILL_SLOPE 1.84, PBLUC_R_SQUARED 0.648, read-out: LUCIFERASE INFECTION ASSAY - IC50): 2.43 µM
O=C1CCCN1c1cccc(Oc2nc(-c3cccnc3)nc3ccccc23)c1 | > 10 µM | > 10 µM | –
Cc1sc2nc(-c3cccnc3)nc(N3CCN(S(=O)(=O)/C=C/c4ccccc4)CC3)c2c1C | > 10 µM | – | IC50 (PBLUC_HILL_SLOPE 11.2, PBLUC_R_SQUARED 0.469, read-out: LUCIFERASE INFECTION ASSAY - IC50): 8.64 µM
O=C(N/N=C/C1=C(N2CCOCC2)C(=C\c2ccccc2)/CC1)c1ccco1 | 3.47 µM | 2.96 µM | –

Compound | IC90 | IC50 [1] | also measured
COc1ccc(-c2ccnc3n[nH]c(-c4ccccc4)c23)cc1OC | 3.3 µM | – | IC50 (HEPG2TOX_HILL_SLOPE 2.45, HEPG2TOX_R_SQUARED 0.911, PBLUC_HILL_SLOPE 2.73, PBLUC_R_SQUARED 0.663, read-out: LUCIFERASE INFECTION ASSAY - IC50): 1.48 µM
O=C(Nc1ccc(N2CCOCC2)nc1)c1ccc(S(=O)(=O)N2CCCc3ccccc32)cc1 | > 10 µM | – | IC50 (HEPG2TOX_HILL_SLOPE 1.57, HEPG2TOX_R_SQUARED 0.865, PBLUC_HILL_SLOPE 1.66, PBLUC_R_SQUARED 0.608, read-out: LUCIFERASE INFECTION ASSAY - IC50): 2.98 µM
Cn1ncc2c(NCc3ccc(-c4ccc(Cl)cc4)o3)ncnc21 | 0.56 µM | – | IC50 (HEPG2TOX_HILL_SLOPE 0.521, HEPG2TOX_R_SQUARED 0.423, PBLUC_HILL_SLOPE 3.64, PBLUC_R_SQUARED 0.888, read-out: LUCIFERASE INFECTION ASSAY - IC50): 0.306 µM
Cc1ccc2c(Cl)cc(Cl)c(OCC(=O)c3c[nH]c(C(=O)N4CCCC4)c3)c2n1 | 8.53 µM | – | IC50 (HEPG2TOX_HILL_SLOPE 1.13, HEPG2TOX_R_SQUARED 0.949, PBLUC_HILL_SLOPE 1.15, PBLUC_R_SQUARED 0.754, read-out: LUCIFERASE INFECTION ASSAY - IC50): 1.25 µM
CSc1ccc(Cl)c(C(=O)OCC(=O)N2CCN(C(=O)c3ccco3)CC2)c1 | > 10 µM | > 10 µM | –
Clc1ccccc1-c1cnc2cnc(-c3cnn(Cc4ccccc4)c3)cn12 | > 8.55 µM | > 8.55 µM | –
CC(C)C(=O)NC1CCCC(C)C1C (stereo not drawn) | > 2 µM | > 2 µM | –
CCN(CC)S(=O)(=O)c1cc(NC(=O)C2CCN(c3ncnc4sc(C)c(C)c34)CC2)ccc1Cl | 3.98 µM | – | IC50 (HEPG2TOX_HILL_SLOPE 2.3, HEPG2TOX_R_SQUARED 0.823, PBLUC_HILL_SLOPE 13, PBLUC_R_SQUARED 0.57, read-out: LUCIFERASE INFECTION ASSAY - IC50): 3.36 µM
C/C=C/C=C/C(=O)Nc1ccc(Nc2ccccc2)cc1 | 5.63 µM | – | IC50 (HEPG2TOX_HILL_SLOPE 12.3, HEPG2TOX_R_SQUARED 0.699, PBLUC_HILL_SLOPE 454, 10.1, PBLUC_R_SQUARED 0.588, 0.566, read-out: LUCIFERASE INFECTION ASSAY - IC50): 5.17 µM
COc1cc(OC)c(C2NC(=O)c3ccc(Cl)cc3N2)cc1OC (stereo not drawn) | > 10 µM | – | IC50 (HEPG2TOX_HILL_SLOPE 8.48, HEPG2TOX_R_SQUARED 0.352, read-out: LUCIFERASE INFECTION ASSAY - IC50): > 10 µM
COc1ccc2c(c1)CCCN2Cc1nn2c(=O)cc(C)nc2s1 | > 10 µM | > 10 µM | –
CSc1nc2ccc(NC(=O)c3cn4ccccc4n3)cc2s1 | > 10 µM | 3.18 µM | –
Cc1cccc(-c2cn3c(-c4cccc(C(=O)N5CCN(C)CC5)c4)cnc3cn2)c1C | 3 µM | – | IC50 (PBLUC_HILL_SLOPE 16.5, PBLUC_R_SQUARED 0.755, read-out: LUCIFERASE INFECTION ASSAY - IC50): 2.63 µM
O=C(Nc1nc(-c2ccco2)c(-c2ccco2)s1)c1cnc(Cl)c(Cl)c1 | > 10 µM | > 10 µM | –
COc1ccc(OCC[N+](C)(Cc2csc(Nc3ccccc3)n2)Cc2csc(Nc3ccccc3)n2)cc1 | 7.93 µM | – | IC50 (HEPG2TOX_HILL_SLOPE 7.97, HEPG2TOX_R_SQUARED 0.988, PBLUC_HILL_SLOPE 3.3, PBLUC_R_SQUARED 0.694, read-out: LUCIFERASE INFECTION ASSAY - IC50): 4.08 µM
CCNc1ccc(S(=O)(=O)C(F)(F)F)cc1NC(=O)/C=C/c1ccc(OC)c(OC)c1 | > 10 µM | – | IC50 (HEPG2TOX_HILL_SLOPE 1.67, 1.94, HEPG2TOX_R_SQUARED 0.906, 0.973, PBLUC_HILL_SLOPE 2.77, PBLUC_R_SQUARED 0.318, read-out: LUCIFERASE INFECTION ASSAY - IC50): 7.07 µM
COc1ccc(-c2cncc(-c3ccc(O)c(OC)c3)n2)cc1 | 0.463 µM | – | IC50 (HEPG2TOX_HILL_SLOPE 11.5, HEPG2TOX_R_SQUARED 0.964, PBLUC_HILL_SLOPE 4.2, PBLUC_R_SQUARED 0.828, read-out: LUCIFERASE INFECTION ASSAY - IC50): 0.274 µM
O=S(=O)(Nc1ccc(OC(F)F)c(Cl)c1)c1ccc(Cl)c(Cl)c1 | > 10 µM | > 10 µM | –
CC(C)c1ccccc1N(C(=O)Cc1ccc(-c2ccccc2)cc1)c1nc2ccccc2s1 | > 10 µM | – | IC50 (FFLUC_HILL_SLOPE 11.9, FFLUC_R_SQUARED 0.677, HEPG2TOX_HILL_SLOPE 16.8, HEPG2TOX_R_SQUARED 0.508, PBLUC_HILL_SLOPE 1.31, PBLUC_R_SQUARED 0.0526, read-out: LUCIFERASE INFECTION ASSAY - IC50): 6.43 µM
O=c1c2sccc2ncn1Cc1cc(-c2cccs2)on1 | > 10 µM | > 10 µM | –
C=CCN(C(=O)c1cc(C2CC2)nc2ccccc12)c1nc2c(s1)CCCC2 | > 10 µM | > 10 µM | –
Nn1c(SCc2cc(F)cc3c2OC(c2ccccc2)OC3)nnc1-c1ccc(OC(F)F)cc1 (stereo not drawn) | > 10 µM | – | IC50 (FFLUC_HILL_SLOPE 12.2, FFLUC_R_SQUARED 0.768, read-out: LUCIFERASE INFECTION ASSAY - IC50): > 10 µM
